Assay results from PubChem BioAssay (NCI).
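Growth conditions: 96-well plates. Treatment: test compound, 48 hours, 5 concentrations. Analysis: linear interpolation between bracketing concentrations; unreached endpoints set to highest concentration. TGI marks complete inhibition of growth.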

Key:
Assay in all cases: NCI-60 cell line screen, 48 h
786-0 renal = test system: 786-0 renal
A498 renal = test system: A498 renal
A549 NSCLC = test system: A549 NSCLC
ACHN renal = test system: ACHN renal
CCRF-CEM leukemia = test system: CCRF-CEM leukemia
COLO 205 colon = test system: COLO 205 colon
DLD-1 colon = test system: DLD-1 colon
DMS 114 small cell lung = test system: DMS 114 small cell lung
DMS 273 small cell lung = test system: DMS 273 small cell lung
HCT-116 colon = test system: HCT-116 colon
HCT-15 colon = test system: HCT-15 colon
HL-60(TB) leukemia = test system: HL-60(TB) leukemia
HOP-18 NSCLC = test system: HOP-18 NSCLC
HT29 colon = test system: HT29 colon
IGROV1 ovarian = test system: IGROV1 ovarian
K-562 leukemia = test system: K-562 leukemia
KM12 colon = test system: KM12 colon
KM20L2 colon = test system: KM20L2 colon
LOX IMVI melanoma = test system: LOX IMVI melanoma
LXFL 529 NSCLC = test system: LXFL 529 NSCLC
M14 melanoma = test system: M14 melanoma
M19-MEL melanoma = test system: M19-MEL melanoma
MALME-3M melanoma = test system: MALME-3M melanoma
MOLT-4 leukemia = test system: MOLT-4 leukemia
NCI-H23 lung = test system: NCI-H23 lung
NCI-H460 lung = test system: NCI-H460 lung
NCI-H522 lung = test system: NCI-H522 lung
OVCAR-3 ovarian = test system: OVCAR-3 ovarian
OVCAR-4 ovarian = test system: OVCAR-4 ovarian
OVCAR-5 ovarian = test system: OVCAR-5 ovarian
OVCAR-8 ovarian = test system: OVCAR-8 ovarian
RPMI-8226 leukemia = test system: RPMI-8226 leukemia
RXF 393 renal = test system: RXF 393 renal
SF-268 CNS = test system: SF-268 CNS
SF-295 CNS = test system: SF-295 CNS
SF-539 CNS = test system: SF-539 CNS
SK-MEL-2 melanoma = test system: SK-MEL-2 melanoma
SK-MEL-28 melanoma = test system: SK-MEL-28 melanoma
SK-MEL-5 melanoma = test system: SK-MEL-5 melanoma
SN12C renal = test system: SN12C renal
SNB-19 CNS = test system: SNB-19 CNS
SNB-75 CNS = test system: SNB-75 CNS
SNB-78 CNS = test system: SNB-78 CNS
SR leukemia = test system: SR leukemia
SW-620 colon = test system: SW-620 colon
TK-10 renal = test system: TK-10 renal
U251 CNS = test system: U251 CNS
UACC-257 melanoma = test system: UACC-257 melanoma
UACC-62 melanoma = test system: UACC-62 melanoma
UO-31 renal = test system: UO-31 renal
CAKI-1 renal = test system: CAKI-1 renal
EKVX NSCLC = test system: EKVX NSCLC
HCC-2998 colon = test system: HCC-2998 colon
HOP-62 NSCLC = test system: HOP-62 NSCLC
NCI-H226 lung = test system: NCI-H226 lung
RXF-631 renal = test system: RXF-631 renal
SK-OV-3 ovarian = test system: SK-OV-3 ovarian
XF 498 CNS = test system: XF 498 CNS

**Q.** With O=C1/C(=C/c2ccccc2)CN(C(=O)C(Cl)(Cl)Cl)C/C1=C\c1ccccc1 as the compound, how does the TGI (786-0 renal) read?
**A.** 9.42 µM

**Q.** What about the TGI (A498 renal) of the same compound?
**A.** 13.7 µM

**Q.** And the TGI (A549 NSCLC)?
**A.** 32.4 µM

**Q.** What about the TGI (ACHN renal) of the same compound?
**A.** 4.62 µM

**Q.** And the TGI (CCRF-CEM leukemia)?
**A.** 3.86 µM

**Q.** What about the TGI (COLO 205 colon) of the same compound?
**A.** 4.69 µM

**Q.** And the TGI (DLD-1 colon)?
**A.** 4.28 µM

**Q.** What about the TGI (DMS 114 small cell lung) of the same compound?
**A.** 3.19 µM

**Q.** And the TGI (DMS 273 small cell lung)?
**A.** 2380 nM

**Q.** What about the TGI (HCT-116 colon) of the same compound?
**A.** 1360 nM

**Q.** What about the TGI (HCT-15 colon) of the same compound?
**A.** 3.58 µM

**Q.** And the TGI (HL-60(TB) leukemia)?
**A.** 524 nM

**Q.** What about the TGI (HOP-18 NSCLC) of the same compound?
**A.** 9.6 µM

**Q.** What about the TGI (HT29 colon) of the same compound?
**A.** 2750 nM

**Q.** And the TGI (IGROV1 ovarian)?
**A.** 5.32 µM

**Q.** And the TGI (K-562 leukemia)?
**A.** 3.26 µM

**Q.** And the TGI (KM12 colon)?
**A.** 3.4 µM

**Q.** What about the TGI (KM20L2 colon) of the same compound?
**A.** 4.67 µM

**Q.** And the TGI (LOX IMVI melanoma)?
**A.** 2180 nM

**Q.** What about the TGI (LXFL 529 NSCLC) of the same compound?
**A.** 3.38 µM

**Q.** What about the TGI (M14 melanoma) of the same compound?
**A.** 2620 nM

**Q.** And the TGI (M19-MEL melanoma)?
**A.** 2680 nM

**Q.** And the TGI (MALME-3M melanoma)?
**A.** 6.01 µM

**Q.** And the TGI (MOLT-4 leukemia)?
**A.** 5.77 µM

**Q.** And the TGI (NCI-H23 lung)?
**A.** 6.8 µM

**Q.** What about the TGI (NCI-H460 lung) of the same compound?
**A.** 4.17 µM

**Q.** And the TGI (NCI-H522 lung)?
**A.** 4.08 µM

**Q.** And the TGI (OVCAR-3 ovarian)?
**A.** 7.88 µM

**Q.** And the TGI (OVCAR-4 ovarian)?
**A.** 3.42 µM

**Q.** And the TGI (OVCAR-5 ovarian)?
**A.** 6.42 µM

**Q.** What about the TGI (OVCAR-8 ovarian) of the same compound?
**A.** 3.1 µM

**Q.** And the TGI (RPMI-8226 leukemia)?
**A.** 314 nM

**Q.** What about the TGI (RXF 393 renal) of the same compound?
**A.** 4.02 µM

**Q.** What about the TGI (SF-268 CNS) of the same compound?
**A.** 13.4 µM

**Q.** What about the TGI (SF-295 CNS) of the same compound?
**A.** 3.24 µM

**Q.** And the TGI (SF-539 CNS)?
**A.** 9.91 µM

**Q.** And the TGI (SK-MEL-2 melanoma)?
**A.** 10.3 µM

**Q.** And the TGI (SK-MEL-28 melanoma)?
**A.** 3.33 µM

**Q.** What about the TGI (SK-MEL-5 melanoma) of the same compound?
**A.** 2360 nM

**Q.** And the TGI (SN12C renal)?
**A.** 3.12 µM

**Q.** What about the TGI (SNB-19 CNS) of the same compound?
**A.** 10.7 µM

**Q.** What about the TGI (SNB-75 CNS) of the same compound?
**A.** 12.3 µM

**Q.** What about the TGI (SNB-78 CNS) of the same compound?
**A.** 7.54 µM

**Q.** And the TGI (SR leukemia)?
**A.** 7.1 µM

**Q.** And the TGI (SW-620 colon)?
**A.** 1820 nM

**Q.** What about the TGI (TK-10 renal) of the same compound?
**A.** 8.72 µM

**Q.** And the TGI (U251 CNS)?
**A.** 3 µM

**Q.** What about the TGI (UACC-257 melanoma) of the same compound?
**A.** 2920 nM

**Q.** What about the TGI (UACC-62 melanoma) of the same compound?
**A.** 3.43 µM

**Q.** And the TGI (UO-31 renal)?
**A.** 7.03 µM

**Q.** With O=S1(=O)c2ccccc2NC(c2ccc3ccccc3c2)CC1c1ccccc1F (configuration not stated) as the compound, how does the TGI (786-0 renal) read?
**A.** > 100 µM

**Q.** What about the TGI (A498 renal) of the same compound?
**A.** > 100 µM

**Q.** And the TGI (A549 NSCLC)?
**A.** > 100 µM

**Q.** And the TGI (ACHN renal)?
**A.** > 100 µM

**Q.** What about the TGI (CAKI-1 renal) of the same compound?
**A.** > 100 µM

**Q.** What about the TGI (CCRF-CEM leukemia) of the same compound?
**A.** > 100 µM

**Q.** What about the TGI (COLO 205 colon) of the same compound?
**A.** > 100 µM

**Q.** What about the TGI (DLD-1 colon) of the same compound?
**A.** > 100 µM

**Q.** And the TGI (DMS 273 small cell lung)?
**A.** > 100000 nM

**Q.** What about the TGI (EKVX NSCLC) of the same compound?
**A.** > 100 µM

**Q.** And the TGI (HCC-2998 colon)?
**A.** > 100 µM

**Q.** And the TGI (HCT-15 colon)?
**A.** > 100 µM

**Q.** What about the TGI (HL-60(TB) leukemia) of the same compound?
**A.** > 100000 nM

**Q.** And the TGI (HOP-18 NSCLC)?
**A.** 56.1 µM

**Q.** What about the TGI (HOP-62 NSCLC) of the same compound?
**A.** > 100 µM

**Q.** And the TGI (HT29 colon)?
**A.** > 100000 nM

**Q.** And the TGI (IGROV1 ovarian)?
**A.** > 100 µM

**Q.** What about the TGI (K-562 leukemia) of the same compound?
**A.** > 100 µM

**Q.** What about the TGI (KM12 colon) of the same compound?
**A.** > 100 µM

**Q.** And the TGI (KM20L2 colon)?
**A.** > 100 µM

**Q.** And the TGI (LOX IMVI melanoma)?
**A.** > 100000 nM

**Q.** And the TGI (M14 melanoma)?
**A.** > 100000 nM

**Q.** And the TGI (M19-MEL melanoma)?
**A.** > 100000 nM

**Q.** What about the TGI (MALME-3M melanoma) of the same compound?
**A.** > 100 µM

**Q.** And the TGI (MOLT-4 leukemia)?
**A.** > 100 µM

**Q.** What about the TGI (NCI-H226 lung) of the same compound?
**A.** > 100 µM

**Q.** And the TGI (NCI-H23 lung)?
**A.** > 100 µM

**Q.** And the TGI (NCI-H460 lung)?
**A.** > 100 µM

**Q.** And the TGI (NCI-H522 lung)?
**A.** > 100 µM

**Q.** And the TGI (OVCAR-3 ovarian)?
**A.** > 100 µM

**Q.** What about the TGI (OVCAR-4 ovarian) of the same compound?
**A.** > 100 µM

**Q.** What about the TGI (OVCAR-5 ovarian) of the same compound?
**A.** > 100 µM

**Q.** And the TGI (OVCAR-8 ovarian)?
**A.** > 100 µM

**Q.** What about the TGI (RPMI-8226 leukemia) of the same compound?
**A.** > 100000 nM

**Q.** And the TGI (RXF 393 renal)?
**A.** > 100 µM

**Q.** And the TGI (RXF-631 renal)?
**A.** > 100 µM

**Q.** What about the TGI (SF-268 CNS) of the same compound?
**A.** > 100 µM

**Q.** What about the TGI (SF-295 CNS) of the same compound?
**A.** > 100 µM

**Q.** And the TGI (SF-539 CNS)?
**A.** > 100 µM

**Q.** What about the TGI (SK-MEL-2 melanoma) of the same compound?
**A.** > 100 µM

**Q.** And the TGI (SK-MEL-28 melanoma)?
**A.** > 100 µM

**Q.** What about the TGI (SK-MEL-5 melanoma) of the same compound?
**A.** > 100000 nM

**Q.** What about the TGI (SK-OV-3 ovarian) of the same compound?
**A.** > 100 µM

**Q.** And the TGI (SN12C renal)?
**A.** > 100 µM

**Q.** What about the TGI (SNB-19 CNS) of the same compound?
**A.** > 100 µM

**Q.** And the TGI (SNB-75 CNS)?
**A.** > 100 µM

**Q.** And the TGI (SW-620 colon)?
**A.** > 100000 nM

**Q.** What about the TGI (TK-10 renal) of the same compound?
**A.** > 100 µM

**Q.** And the TGI (UACC-257 melanoma)?
**A.** > 100000 nM

**Q.** And the TGI (UACC-62 melanoma)?
**A.** > 100 µM

**Q.** And the TGI (UO-31 renal)?
**A.** > 100 µM

**Q.** What about the TGI (XF 498 CNS) of the same compound?
**A.** > 100 µM
